Test results published in patent publication US8012499B2, “Anthranilamides for controlling invertebrate pests” (E.I. du Pont de Nemours and Company, priority 2005, dated 2011).

melting point	Compound
223 to 227 °C	CCN(CC)C(=O)C(=O)c1cc(C)cc(C)c1NC(=O)c1cc(C(F)(F)F)nn1-c1ncccc1Cl [Example 2, 1-(3-chloro-2-pyridinyl)-N-[2-[(diethylamino)oxoacetyl]-4,6-dimethylphenyl]-3-(trifluoromethyl)-1H-pyrazole-5-carboxamide]
234 °C (dec.)	C/N=C(/C(=O)NC)c1cc(Cl)cc(C)c1NC(=O)c1cc(Br)nn1-c1ncccc1Cl [Example 6, 3-bromo-N-[4-chloro-2-methyl-6-[(1E)-2-(methylamino)-1-(methylimino)-2-oxoethyl]phenyl]-1-(3-chloro-2-pyridinyl)-1H-pyrazole-5-carboxamide]
247 °C	CNC(=O)C(=O)c1cc(Cl)cc(C)c1NC(=O)c1cc(Br)nn1-c1ncccc1Cl [Example 7, 3-bromo-N-[4-chloro-2-methyl-6-[(methylamino)oxoacetyl]phenyl]-1-(3-chloro-2-pyridinyl)-1H-pyrazole-5-carboxamide]
